Source: US20260373164A1, “4(RS)-4-F4-NEUROPROSTANE DERIVATIVES (4-F4T-NEUROP) AND THEIR USE IN TREATING VENTILATOR INDUCED DIAPHRAGMATIC DYSFUNCTION AND OTHER DISEASES” (INSTITUT NATIONAL DE LA SANTÉ ET DE LA RECHERCHE MÉDICALE, priority 2022, published 2026)
“Also recorded” adds a separate entry of the source.

Legend:
[1] = test system: ventricular myocytes (type 2 ryanodine receptor); test: Anti-arrhythmic properties in isolated ventricular myocytes (calcium transients and cell contraction, IonOptix); format: cell-based, murine; settings: 10 nM isoproterenol; for anti-arrhythmic properties (ryanodine dependent arrhythmic cells): VB574 10 nM, 100 nM or 1 μM, compound IV 1 μM, 1 Hz stimulation
Description: Compounds 20,21,22-trinor-4(RS)-4-F4t-NeuroP (compound of Formula III, VB574) and monohydroxylated derivative of 4-F4t-NeuroP (Compound IV) were evaluated for their anti-arrhythmic properties. Calcium transients and cell contraction was measured by the photometric system ionOptix®.
The photometric system IonOptix® can provide real-time, simultaneous acquisition of fluorescence photometry with sarcomere length measurements. For the study of isolated myocytes, the system includes a pacemaker that offers full control of the stimulation pulse duration, the frequency and the voltage. Thus, the photometric system IonOptix® puts in correlation the calcium transients and the shortening of the electrically stimulated myocytes (1 Hz, 20 V, FIG. 7). Calcium was studied by the use of a ratiometric fluorescent calcium probe (indo-1-AM, excitation wavelength 360±10 nm, emission wavelength at 405±10 nm and 485±10 nm).
To measure the intracellular calcium, the first step was to bring ventricular myocytes load into contact with an amount of indo-1-AM. To make it liposoluble, indo-1 was esterified on its carboxylic functions to give indo-1-AM. Once present in the cell, esterases allow the release of Indo-1 carboxylic functions enabling it to bind to the intracellular calcium. The incorporation time was predetermined to 30 minutes. This time was chosen following experiments using different times of incubation and 30 minutes was the time giving a good ratio/noise ratio and no obvious perturbation of cellular calcium homeostasis. The incubation time of the probe is critical because too low load generates a weak signal while excessive exposure will excessively increase the buffering capacity of the cytoplasm for calcium.
Once loaded and the cells arranged on the measuring system by means of a tank containing Tyrode salt solution (450 μL), the probe was excited by a xenon lamp at a wavelength of 360 nm. Through an optical wavelength filter, the apparatus collects the fluorescence emitted from the Indo-1 at two different wavelengths: 405±10 nm and 485±10 nm. The first wavelength represents the fluorescence of the probe bound to calcium and the second wavelength represents the fluorescence of the free probe. The ratio of these two wavelengths reflects the concentration of intracellular calcium. It is thus possible to observe calcium transients in ventricular myocytes systole but also to observe the diastolic calcium when the stimulation is stopped.
To measure the contraction, striation of cardiac cells due to the presence of sarcomeres was used. […] The recorded signal is similar to a sine function. […]
Thus, to evaluate the potential RyR stabilizing effect of the 4-F4T-neuroprostane derivatives (compounds III and IV), the compounds were applied, and the percentage of arrhythmic cells was measured.

RyR2 = settings: previously reported (ref. 21); cited from earlier work

CC(C)NCC(O)c1ccc(O)c(O)c1 (centres unmarked) [isoproterenol]
amplitude of contractions [1]: increase in the amplitude of contractions
extrasystole ventricular contraction (ESV) [1]: promotes the development of ESV; also recorded: promote the development of ExtraSystole Ventricular contraction (ESV)

CC/C=C\C/C=C\C/C=C\C/C=C\C/C=C\C/C=C\CCC(=O)O [DHA, docosahaenoic acid]
cardiac anti-arrhythmic effect, RyR2 stabilization (RyR2): could exert a cardiac anti-arrhythmic effect due to a stabilization of the cardiac isoform of ryanodine receptor, RyR2

CC/C=C\C/C=C\C[C@@H]1[C@H](/C=C/C(O)CCC(=O)O)[C@@H](O)C[C@H]1O (mixture of isomers) [compound III, (E)-6-((1S,2R,3R,5S)-3,5-dihydroxy-2-((2Z,5Z)-octa-2,5-dien-1-yl)cyclopentyl)-4-hydroxyhex-5-enoic Acid]
anti-arrhythmic properties (ryanodine dependent arrhythmic cells) [1]: show anti-arrhythmic properties indicative of an interaction with the RyR

CC/C=C\C/C=C\C/C=C\C[C@H]1CC[C@H](O)[C@H]1/C=C/C(O)CCC(=O)O (some centres unmarked) [compound IV]
anti-arrhythmic properties (ryanodine dependent arrhythmic cells) [1]: show anti-arrhythmic properties indicative of an interaction with the RyR
